The test system of assay [1] is Candida albicans ATCC 10231(R) (strain A). Description: MIC determination, in vitro antifungal assay (CLSI M27-A3). Format: cell-based. The conditions noted are these: MIC-0 (no visible growth), 48 h at 35° C. As for the experimental part:
(§1) The activity of N,N′-diaryl-bishydrazones 7-22 was tested against a panel of seven strains of C. albicans: ATCC 10231(R) (A), ATCC 64124(R) (B), ATCC MYA-2876(S) (C), ATCC 90819(R) (D), ATCC MYA-2310(S) (E), ATCC MYA-1237(R) (F), and ATCC MYA-1003(R) (G). The activity of these bishydrazones 7-22 was also explored against a panel of three non-albicans Candida strains: C. glabrata ATCC 2001 (H), C. krusei ATCC 6258 (I), and C. parapsilosis ATCC 22019 (J). Finally, the activity of these bishydrazones 7-22 was explored against three Aspergillus strains: A. flavus ATCC MYA-3631 (K), A. nidulans ATCC 38163 (L), and A. terreus ATCC MYA-3633 (M).
(§2) Candida albicans ATCC 10231 (A), C. albicans ATCC 64124 (B), and C. albicans ATCC MYA-2876 (C) were kindly provided by Dr. Jon Y. Takemoto (Utah State University, Logan, UT, USA). C. albicans ATCC 90819 (D), C. albicans ATCC MYA-2310 (E), C. albicans ATCC MYA-1237 (F), C. albicans ATCC MYA-1003 (G), Candida glabrata ATCC 2001 (H), Candida krusei ATCC 6258 (I), Candida parapsilosis ATCC 22019 (J), Aspergillus flavus ATCC MYA-3631 (K), and Aspergillus terreus ATCC MYA-3633 (M) were obtained from the American Type Culture Collection (ATCC; Manassas, VA, USA). Aspergillus nidulans ATCC 38163 (L) was received from Dr. Jon S. Thorson (University of Kentucky, Lexington, KY, USA). Filamentous fungi and yeasts were cultivated at 35° C. in RPMI 1640 medium (with 1-glutamine, without sodium biocarbonate, Sigma-Aldrich, St. Louis, MO) buffered to a pH of 7.0 with 0.165 M morpholinepropanesulfonic acid (MOPS) buffer (Sigma-Aldrich).
(§3) The MIC values of compounds 7a-24c against yeast cells (strains A-J) were determined in 96-well plates as described in the CLSI document M27-A3 with minor modifications. A single colony of freshly prepared yeast cells was used to inoculate 5 mL of yeast extract peptone dextrose (YPD) broth prior to incubation overnight with shaking at 200 rpm at 35° C. From the actively growing yeast culture, 100 μL were then transferred to 900 μL of sterile ddH2O and re-adjusted to achieve OD600 of 0.12 (˜1×10^6 CFU/mL). The cell suspension was further diluted to achieve 2-4×10^3 CFU/mL in RPMI 1640 medium. […] The final concentration of DMSO was ensured to be <1.25% in all experiments. The MIC values for compounds 7a-24c and CAS were defined as the minimum drug concentration that yielded complete inhibition (also known as MIC-0).

For assay [2], the system named is Candida parapsilosis ATCC 22019 (strain J). The description is as above. The assay is classed as cell-based. To be noted: Lodderomyces parapsilosis, ATCC22019, 48 h, strain J; MIC-0; 48 h at 35° C.; read-out: MIC. Here is the method: as §1, §2, §3
Assay [3] concerns C. albicans ATCC 64124(R) (strain B). The assay is described as above. The assay is classed as cell-based, Candida albicans. The conditions noted are these: Candida albicans, ATCC64124, 48 h, strain B; MIC-0; 48 h at 35° C.; read-out: MIC. Here is the method: as §1, §2, §3
For assay [4], the system named is C. albicans ATCC 90819(R) (strain D). Described as above. Format: cell-based, Candida albicans. The conditions noted are these: Candida albicans, ATCC90819, 48 h, MIC-0, 48 h at 35° C., read-out: MIC. As for the experimental part:
as §1, §2, §3

Assay [5] concerns C. albicans ATCC MYA-1237(R) (strain F). The description is as above. Format: cell-based, Candida albicans. To be noted: Candida albicans, 48 h, MIC-0, 48 h at 35° C., read-out: MIC. As for the experimental part:
as §1, §2, §3

Assay [6] relates to C. albicans ATCC MYA-2310(S) (strain E). The description is as above. The assay is classed as cell-based, Candida albicans. The conditions noted are these: Candida albicans, 48 h, MIC-0, 48 h at 35° C., read-out: MIC. Here is the method: as §1, §2, §3
Assay [7] has as its system C. albicans ATCC MYA-1003(R) (strain G). The description is as above. The assay is classed as cell-based, Candida albicans. To be noted: Candida albicans, 48 h, MIC-0, 48 h at 35° C., read-out: MIC. As for the experimental part: as §1, §2
(§4) A single colony of freshly prepared yeast cells was used to inoculate 5 mL of yeast extract peptone dextrose (YPD) broth prior to incubation overnight with shaking at 200 rpm at 35° C. From the actively growing yeast culture, 100 μL were then transferred to 900 μL of sterile ddH2O and re-adjusted to achieve OD600 of 0.12 (˜1×10^6 CFU/mL). The cell suspension was further diluted to achieve 2-4×10^3 CFU/mL in RPMI 1640 medium. […] The final concentration of DMSO was ensured to be <1.25% in all experiments.

The subject of assay [8] is C. albicans ATCC MYA-2876(S) (strain C). Described as above. Format: cell-based, Candida albicans. To be noted: Candida albicans, 48 h, MIC-0, 48 h at 35° C., read-out: MIC. As for the experimental part:
as §1, §2, §4

The test system of assay [9] is Candida glabrata ATCC 2001 (strain H). The assay is described as above. The conditions noted are these: Nakaseomyces glabratus, ATCC2001, 48 h, MIC-0, 48 h at 35° C., read-out: MIC. The assay is classed as cell-based. Here is the method:
as §1, §2, §4

In assay [10] the test system is Candida krusei ATCC 6258 (strain I). The description is as above. The assay is classed as cell-based. To be noted: Pichia kudriavzevii, ATCC6258, 48 h, MIC-0, 48 h at 35° C., read-out: MIC. As for the experimental part:
as §1, §2, §4

Assay [11] has as its system Aspergillus flavus ATCC MYA-3631 (strain K). Nature of the assay: MIC determination against filamentous fungi (CLSI M38-A2). The assay is classed as cell-based. To be noted: Aspergillus flavus, 48 h, MIC-0, 48 h at 35° C., read-out: MIC. As for the experimental part: as §1, §2
(§5) Similarly, the MIC values of compounds 7a-24c, as well as that of the two control drugs against filamentous fungi (strains K-M) were determined as previously described in CLSI document M38-A2. Spores were harvested from sporulating cultures growing on potato dextrose agar (PDA) by filtration through sterile glass wool and enumerated by using a hemocytometer to obtain the desired inoculum size. […] Spore suspensions were added to the wells to afford a final concentration of 5×10^5 CFU/mL. The plates were incubated at 35° C. for 48 h. The MIC values of compounds 7a-24c and CAS against filamentous fungi were based on the complete inhibition of growth when compared to the growth control (MIC-0). […] Each test was performed in triplicate.

Assay [12] concerns Aspergillus nidulans ATCC 38163 (strain L). The description is as above. The assay is classed as cell-based. The conditions noted are these: Aspergillus nidulans, ATCC38163, 48 h, MIC-0, 48 h at 35° C., read-out: MIC. Here is the method: as §1, §2, §5
Assay [13] has as its system Aspergillus terreus ATCC MYA-3633 (strain M). The description is as above. The assay is classed as cell-based. The conditions noted are these: Aspergillus terreus, 48 h, MIC-0, 48 h at 35° C., read-out: MIC. Here is the method: as §1, §2, §5
Assay [14] relates to various yeast strains and filamentous fungi (strains A-M). Description: Antifungal activity over the whole panel (summary of MIC data). Format: cell-based, Candida and Aspergillus strains. The conditions noted are these: for antifungal activity (in words): over the fungal strains tested, based on MIC data of Table 1. Here is the method:
as §1, §3, §5

The mark [15] stands for this setting: Candida albicans, ATCC10231, 48 h, read-out: MIC.

Consider 3 compounds from patent publication US11851391B2, “Antifungal compounds and methods of forming the same” (University of Kentucky Research Foundation, priority 2018, dated 2023).

Structures are written as SMILES. ≈ marks a conversion by molar mass, not a printed value. Where two headings read alike, the source gives them in different places.

Turning to `Clc1ccc(N/N=C/c2ccc(-c3ccc(/C=N/Nc4ccc(Cl)cc4)cc3)cc2)cc1` [Compound 18b], the MIC in assay [1] (setting [15]) is greater than 31.3 µg/mL; in assay [2] it was 31.3 µg/mL (≈ 68.1 µM); in [3], greater than 31.3 µg/mL; in [4], greater than 31.3 µg/mL; in assay [5], greater than 31.3 µg/mL; in [6], greater than 31.3 µg/mL. In addition, the MIC in assay [7] is greater than 31.3 µg/mL; in assay [8], greater than 31.3 µg/mL; in assay [9], greater than 31.3 µg/mL; in [10], 31.3 µg/mL (≈ 68.1 µM); in assay [11], greater than 31.3 µg/mL; in [12] it was greater than 31.3 µg/mL. Besides, the MIC in assay [13] was determined as 31.3 µg/mL (≈ 68.1 µM). Further, the “antifungal activity (in words)” value in assay [14] is “inactive”.
Regarding `Brc1ccc(N/N=C/c2ccc(-c3ccc(/C=N/Nc4ccc(Br)cc4)cc3)cc2)cc1` [Compound 19b], the MIC in assay [1] (setting [15]) is greater than 31.3 µg/mL; in assay [2], 31.3 µg/mL (≈ 57.1 µM); in [3], greater than 31.3 µg/mL; in assay [4] it was greater than 31.3 µg/mL; in [5] it was greater than 31.3 µg/mL; in [6], greater than 31.3 µg/mL. Also, the MIC in [7], in [8], in assay [9], in assay [10], in assay [11] and in assay [12] was greater than 31.3 µg/mL in each case. The MIC in assay [13] is greater than 31.3 µg/mL. In addition, in assay [14], the “antifungal activity (in words)” value is “inactive”.
In the case of `Fc1ccc(N/N=C/c2ccc(-c3ccc(/C=N/Nc4ccc(F)cc4F)cc3)cc2)c(F)c1` [Compound 20b], the MIC in assay [1] (setting [15]) is 7.8 µg/mL (≈ 16.9 µM); in [1] it was 7.8 µg/mL (≈ 16.9 µM); in assay [2], greater than 31.3 µg/mL; in assay [3], greater than 31.3 µg/mL; in assay [4], 31.3 µg/mL (≈ 67.7 µM); in assay [5], greater than 31.3 µg/mL. The MIC in assay [6], in assay [7], in assay [8], in assay [9], in assay [10] and in assay [11] was greater than 31.3 µg/mL each time. Also, the MIC in [12] was greater than 31.3 µg/mL; in [13] it was greater than 31.3 µg/mL; in [14] (against all fungal strains tested, with named exceptions, read-out: antifungal activity class based on MIC values), no less than 31.3 µg/mL.

Usually MIC stands for the smallest concentration in the dilution series that meets the test's criterion for growth inhibition.
